Earlier results in patent publication US5858994A, “Carbohydrate conjugates as inhibitors of cell adhesion” (priority 1994, dated 1999).

Test system: selectin receptors
Conditions: compared with sialyl-Lewis X; cited from earlier work

CC(=O)N[C@@H]1[C@@H](O[C@@H]2O[C@H](CO)[C@H](O)[C@H](O[C@]3(C(=O)O)C[C@H](O)[C@@H](NC(C)=O)[C@H]([C@H](O)[C@H](O)CO)O3)[C@H]2O)[C@H](O[C@@H]2O[C@@H](C)[C@@H](O)[C@@H](O)[C@@H]2O)[C@@H](CO)O[C@H]1O [sialyl-Lewis A]
binding to selectin receptors relative to the X type: comparable affinity
